# T1: mSPP1 (Mus musculus, UniProt Q9JI99)
# T1 construct: expressed in transfected cells; host or cells: HEK293 (human embryonic kidney), transient CaCl2 transfection with mSPP1-pcDNA3.1; membrane pellet (40,000 x g)
# T1 sequence (Q9JI99 1-430): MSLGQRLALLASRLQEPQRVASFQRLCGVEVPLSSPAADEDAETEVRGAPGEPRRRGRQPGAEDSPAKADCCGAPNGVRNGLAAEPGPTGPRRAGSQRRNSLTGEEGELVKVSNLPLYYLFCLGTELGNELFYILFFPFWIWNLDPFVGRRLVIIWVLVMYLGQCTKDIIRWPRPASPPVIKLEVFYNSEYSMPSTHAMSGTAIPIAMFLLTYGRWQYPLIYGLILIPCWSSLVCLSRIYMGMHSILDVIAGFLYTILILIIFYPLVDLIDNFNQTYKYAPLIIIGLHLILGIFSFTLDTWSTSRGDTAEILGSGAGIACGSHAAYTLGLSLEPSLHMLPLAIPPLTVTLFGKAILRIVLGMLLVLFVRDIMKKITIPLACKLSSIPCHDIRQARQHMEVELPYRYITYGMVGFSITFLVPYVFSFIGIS
# Assays:
# [1] = biological target: T1, mSPP1; assay: Substrate degradation by membrane fractions from HEK293 cells transfected with mSPP1; assay type: biochemical, murine
# [2] = system: Yeast (lbp1Δ::LEU2 sur2-2); assay: Australifungin sensitivity, microtiter broth dilution assay in transformed yeast; assay type: cell-based
# Method: Yeast cells defective in LBP1 shunt sphingolipid metabolites into phosphatidylethanolamine and phosphatidylcholine synthesis and become extremely sensitive to ceramide synthase inhibition by the antifungal agent, australifungin. To test whether the mouse SPP phosphatases can substitute for the function of LBP1, mSPP1pRS414-ADH, mSPP1bpRS414-ADH, or control vector (pRS414-ADH) were transformed into lbp1Δ::LEU2sur2-2 and sensitivity to australifungin was determined using a microtiter broth dilution assay. Transformants were incubated overnight in Synthetic Complete-Tryptophan (SC-TRP) Yeast Nitrogen Base medium (DIFCO) containing 2% glucose and 0.078% tryptophan-free supplement mixture (BIO101) at […]. Cells were inoculated at an OD600=0.001 (˜1×10^4 yeast cells/ml), and serial 2-fold dilutions of australifungin were made from 5 μg/ml. Growth after 48 h at 30° C. was measured by absorbance readings with a Rainbow spectrometer (TECAN).
# [3] = system: [3H]dihydrosphingosine-1-phosphate; assay: Dihydrosphingosine phosphate phosphohydrolase activity in membranes of transfected HEK293 cells; assay type: biochemical, Human; conditions: compared to vector transfected cells or mSPP1b transfected cells
# Method: (§1) Microsomal membranes were collected by ultracentrifugation (100,000×g, 1 hour) and suspended in disruption buffer containing 20% glycerol. Dihydrosphingosine-1-phosphate phosphohydrolase activity was measured in 200 μl containing 50 mM KPO4 pH 7.2, 0.02% tergitol (NP-40), 2 μM [^3H]dihydrosphingosine-1-phosphate (40,000 cpm), 2 mM semicarbazide, and 0.3 to 5 μg of membrane protein. Following a 45 min incubation at 37° C., the assay was terminated with 200 μl 7 M NH4OH. One ml of chloroform:methanol (3:2) was added and 50 μl of the chloroform layer was counted by liquid scintillation.
# Transfection-quality DNA was prepared for plasmids mSPP1-pcDNA3.1 and mSPP1b-pcDNA3.1 using endotoxin-free QIAGEN Maxi protocol (QIAGEN, Chatsworth, Calif.). Human embryonic kidney (HEK293) cells were maintained in high glucose Dulbecco's modified Eagle's medium (DMEM) containing 100 U/ml penicillin, 100 μg/ml streptomycin and 2 mM L-glutamine supplemented with 10% fetal bovine serum. Cells (1×10^6) were transfected with 20 μg of plasmid DNA by the CaCl2 procedure using a kit from SPECIALTY MEDIA (Lavallette, N.J.). Cells were harvested 48 hours after transfection with enzyme-free dissociation solution (SPECIALTY MEDIA, Lavallette, N.J.). […] Dihydrosphingosine phosphate phosphohydrolase activity was measured as described in Example 4.
# [4] = system: [3H]dihydrosphingosine-1-phosphate; assay: Dihydrosphingosine-1-phosphate phosphohydrolase activity in microsomal membranes of transformed yeast; assay type: biochemical; conditions: yeast lbp1Δ::LEU2 sur2-2 expressing the protein, compared to the vector control
# From the text: To test whether mSPP1 and mSPP1b encoded SPP phosphatases with properties similar to yeast Lbp1p, the mouse genes were subcloned into pRS414-ADH for expression of the genes in LBP1 mutants under the control of a strong, constitutive yeast promoter (ADH). The resulting plasmids were mSPP1pRS414-ADH and mSPP1bpRS414-ADH. Yeast (lbp1Δ::LEU2 sur2-2) were transformed with mSPP1pRS414-ADH, mSPP1bpRS414-ADH, or control vector (pRS414-ADH) using the lithium acetate/polyethylene glycol procedure and plated onto Synthetic Complete-Tryptophan (SC-TRP) Yeast Nitrogen Base medium (DIFCO) containing 1.5% agar, 2% glucose and 0.078% tryptophan-free supplement mixture (BIO101). Transformants were inoculated into SC-TRP media and incubated overnight at 30° C. to an OD600 of 1.0. […]
# as §1, with “Following a 45 min incubation at 37° C., the assay was terminated with 200 μl 7 M NH4OH.” left out
# [5] = system: NIH 3T3 fibroblasts; assay: Enforced expression of mSPP1 in NIH 3T3 fibroblasts: survival and apoptosis; assay type: cell-based; conditions: enforced expression in NIH 3T3 fibroblasts
molecule,measurement,setting,value
"CCCCCCCCCCCCC/C=C/[C@@H](O)[C@@H](N)COP(=O)(O)O [SPP, Sphingosine-1-phosphate]",degradation of substrate by mSPP1 membrane fractions,[1],markedly degraded
ceramide-1-phosphate,degradation of substrate by mSPP1 membrane fractions,[1],not
CCCCCC[C@@H](C)C1=C(O)C(=O)[C@@H]2[C@H](O)[C@H](C)C[C@H](O)[C@H]2[C@]1(C)C(=O)/C=C\O [australifungin],increase in the MIC90 of australifungin,"[2]; lbp1Δsur2-2 mutant expressing mSPP1, compared to vector transformed mutants, growth after 48 h at 30° C.",64 fold
same,australifungin sensitivity,[2]; lbp1Δsur2-2 mutant expressing mSPP1b,did not alter
lysophosphatidic acid,degradation of substrate by mSPP1 membrane fractions,[1],not
phosphatidic acid,degradation of substrate by mSPP1 membrane fractions,[1],not
"mSPP1: murine sphingosine-1-phosphate phosphatase, recombinant enzyme having the amino acid sequence of SEQ ID NO:3 (protein) MSLGQRLALLASRLQEPQRVASFQRLCGVEVPLSSPAADEDAETEVRGAPGEPRRRGRQPGAEDSPAKADCCGAPNGVRNGLAAEPGPTGPRRAGSQRRNSLTGEEGELVKVSNLPLYYLFCLGTELGNELFYILFFPFWIWNLDPFVGRRLVIIWVLVMYLGQCTKDIIRWPRPASPPVIKLEVFYNSEYSMPSTHAMSGTAIPIAMFLLTYGRWQYPLIYGLILIPCWSSLVCLSRIYMGMHSILDVIAGFLYTILILIIFYPLVDLIDNFNQTYKYAPLIIIGLHLILGIFSFTLDTWSTSRGDTAEILGSGAGIACGSHAAYTLGLSLEPSLHMLPLAIPPLTVTLFGKAILRIVLGMLLVLFVRDIMKKITIPLACKLSSIPCHDIRQARQHMEVELPYRYITYGMVGFSITFLVPYVFSFIGIS",increase in dihydrosphingosine phosphate phosphohydrolase activity,[3],4 to 5 fold
same,increase in membrane dihydrosphingosine-1-phosphate phosphohydrolase activity,[4],3 to 4 fold
same,apoptosis,[5],induced the characteristic traits of apoptosis
same,cell survival,[5],markedly decreased survival
"mSPP1b: murine mSPP1b protein of SEQ ID NO:4, divergent 5′ end, lacks the activity of mSPP1; counterscreen or negative control (protein) MGEELGHCVQMRKSNERGKRFREQRVQRAQGKVSHHTKEEEETRVRQMSQGWEEKEYGYYLFCLGTELGNELFYILFFPFWIWNLDPFVGRRLVIIWVLVMYLGQCTKDIIRWPRPASPPVIKLEVFYNSEYSMPSTHAMSGTAIPIAMFLLTYGRWQYPLIYGLILIPCWSSLVCLSRIYMGMHSILDVIAGFLYTILILIIFYPLVDLIDNFNQTYKYAPLIIIGLHLILGIFSFTLDTWSTSRGDTAEILGSGAGIACGSHAAYTLGLSLEPSLHMLPLAIPPLTVTLFGKAILRIVLGMLLVLFVRDIMKKITIPLACKLSSIPCHDIRQARQHMEVELPYRYITYGMVGFSITFLVPYVFSFIGIS",increase in membrane dihydrosphingosine-1-phosphate phosphohydrolase activity,[4],same level of phosphohydrolase activity as control

# — patent US6667163B2, “Polynucleotide sequences encoding mouse sphingosine-1-phosphate phosphatase” (Merck & Co., Inc., priority 2000, dated 2003)
